The source of these data is paper PMC12376758, “Restoration of CB1 receptor function in hippocampal GABAergic neurons rescues memory deficits in Huntington’s disease models” (Translational Neurodegeneration, 2025).

Like-named read-outs stand apart in the source and are kept apart here.

Test [1] has as its system CB1R. Also on record: method as in PMID 36979335. The conditions noted are these: rat model of cerebral ischemia; cited from earlier work.
The next test concerns PSD95. Description: Western blot of PSD95 in hippocampal lysates. Type of test: in vivo, mouse. The conditions noted are these: R6/1 mice, WIN 1 mg/kg i.p. 10 days. A general note: Immunoblotting shows a protein as a band on a membrane.
Test [2] relates to CB1R. Format: in vivo, mouse. Conditions: for CB1R protein level, Western blot: total hippocampal lysates, WIN 1 mg/kg i.p. 10 days.
For another test, the system named is CB2R. Description: Western blot of CB2R in total hippocampal lysates after sub-chronic WIN. Conditions: WIN 1 mg/kg i.p. 10 days. Type of test: in vivo, mouse.
For test [3], the system named is Hdh^Q7/Q111 mutant KI mice. Description: NOLT, NORT and Y-maze in Hdh^Q7/Q111 KI mice. Format: in vivo, mouse. Conditions: 6 months, sub-chronic WIN 1 mg/kg i.p. How it is done: Spontaneous working memory was assessed using the Y-maze test. Mice were habituated to the testing room 1 h prior to the session. During the 8-min trial, each mouse was placed in the center of the maze and allowed to move freely. An arm entry was recorded when all four paws of the mouse were within the arm. The apparatus was cleaned thoroughly after each trial. Alternation was defined as successive entries into all three arms in an overlapping triplet sequence. Spontaneous alternation was calculated as the ratio of actual alternations to the total possible alternations, and the result was expressed as a percentage.
NOLT was conducted in a quadrangular open field (40 cm × 40 cm, 40 cm high) with a light intensity of 40 lx at controlled room conditions (19–22 °C, 40%–60% humidity). […] During this phase, spontaneous locomotor activity, as well as the time and the distance spent in the periphery versus the center, were measured. […] Animal movements were tracked and recorded using the SMART® Junior software (Panlab, Spain). Exploration times were recorded to calculate the discrimination index as follows: discriminationindex=Timeexploringnovelobject-Timeexploringfamiliarobject/Timeexploringbothobjects×100\%
Exploration in the NORT followed the same conditions as described for the NOLT. […] Animal movements were tracked and recorded with the SMART® Junior software (Panlab, Spain). […]

Test [4] has as its system mutant huntingtin (mHtt) aggregates. The experiment in a line: EM48 immunostaining of mutant huntingtin nuclear aggregates in hippocampus. Type of test: in vivo, mouse. The conditions noted are these: R6/1 mice, hippocampus (CA1), WIN 1 mg/kg i.p. vs vehicle. How it is done:
Hippocampal coronal sections from vehicle- and WIN-treated R6/1 mice were first incubated for 30 min in ammonium chloride (NH4Cl) to quench endogenous fluorescence. They were then blocked for 1 h in PBS containing 0.3% Triton X-100 (Merck), 3% normal goat serum (Abcam), and 1% bovine serum albumin (BSA; Merck). After blocking, the sections were incubated overnight at 4 °C with anti-EM48 (1:1000, Merck). The EM48 antibody specifically recognizes huntingtin-containing nuclear aggregates by targeting the first 256 amino acids of human huntingtin protein [48]. […]
Imaging was performed using a Leica Confocal SP5 with a 63 × oil-immersion objective, ensuring consistent imaging conditions (pinhole size:1 AU, resolution: 1024 × 1024 pixels, and intensity). Automated quantification of nuclear huntingtin aggregates, including the number, intensity, and pixel area of EM48-stained nuclei in the hippocampus, was carried out using the ImageJ particle analysis plugin.
The density of aggregates was calculated as the ratio of the number of positive particles (NII) to the pixel area (mm^2). EM48 staining index (SI) was determined as the product of the mean number of stained nuclei and the average nuclear stain intensity, as described previously.

Turning to `Cc1c(C(=O)c2cccc3ccccc23)c2cccc3c2n1[C@H](CN1CCOCC1)CO3` [WIN, WIN 55212–2], the “CB1R protein levels in the hippocampus” value in the test on CB1R [1] is listed as “significantly increased”. The PSD95 protein level result with PSD95 is “restored”. Also, in the test on CB1R [2] (Hdh^Q7/Q111 KI mice 6 months, hippocampal lysates, sub-chronic WIN), the “CB1R levels, Western blot” value is recorded as “trend of increase”. For the same molecule, the “CB1R protein level, Western blot” value in the test on CB1R [2] (R6/1 mice 13 weeks) was “restored”; in the test on CB1R [2] (WT mice), “significantly modulated”. Also, the “CB2R levels, Western blot” value with CB2R (Hdh^Q7/Q111 KI mice 6 months) and with CB2R (R6/1 mice 13 weeks) was “did not significantly affect” each time. Moreover, the “memory deficits (NOLT, NORT, Y-maze)” value in test [3] is reported as “restored”. For the same molecule, the “density of intranuclear mHtt inclusion” value in test [4] was “significant reduction”.
